Values quoted from earlier work in patent publication US20210339043A1, “NEURAL STIMULATION VIA VISUAL STIMULATION” (Cognito Therapeutics, Inc., priority 2016, published 2021).

Conditions: 70 kg adult; for estimated absorbed radiation dose, Adrenals: organ: Adrenals; for estimated absorbed radiation dose, Brain: organ: Brain; for estimated absorbed radiation dose, Breasts: organ: Breasts; for estimated absorbed radiation dose, Heart Wall: organ: Heart Wall; for estimated absorbed radiation dose, Kidneys: organ: Kidneys; for estimated absorbed radiation dose, Lungs: organ: Lungs; for estimated absorbed radiation dose, Muscle: organ: Muscle; for estimated absorbed radiation dose, Ovaries: organ: Ovaries; for estimated absorbed radiation dose, Pancreas: organ: Pancreas; for estimated absorbed radiation dose, Red marrow: organ: Red marrow; for estimated absorbed radiation dose, Skin: organ: Skin; for estimated absorbed radiation dose, Spleen: organ: Spleen; for estimated absorbed radiation dose, Testes: organ: Testes; for estimated absorbed radiation dose, Thymus: organ: Thymus; for estimated absorbed radiation dose, Thyroid: organ: Thyroid; for estimated absorbed radiation dose, Urinary bladder wall: organ: Urinary bladder wall; for estimated absorbed radiation dose, Uterus: organ: Uterus

SMILES | estimated absorbed radiation dose, Adrenals | estimated absorbed radiation dose, Brain | estimated absorbed radiation dose, Breasts | estimated absorbed radiation dose, Heart Wall | estimated absorbed radiation dose, Kidneys | estimated absorbed radiation dose, Lungs | estimated absorbed radiation dose, Muscle | estimated absorbed radiation dose, Ovaries | estimated absorbed radiation dose, Pancreas | estimated absorbed radiation dose, Red marrow | estimated absorbed radiation dose, Skin | estimated absorbed radiation dose, Spleen | estimated absorbed radiation dose, Testes | estimated absorbed radiation dose, Thymus | estimated absorbed radiation dose, Thyroid | estimated absorbed radiation dose, Urinary bladder wall | estimated absorbed radiation dose, Uterus | other results
CNc1ccc(/C=C/c2ccc(OCCOCCOCC[18F])nc2)cc1 [18F-AV-45] | 0.05 rad/mCi | 0.037 rad/mCi | 0.023 rad/mCi | 0.048 rad/mCi | 0.048 rad/mCi | 0.032 rad/mCi | 0.032 rad/mCi | 0.065 rad/mCi | 0.053 rad/mCi | 0.053 rad/mCi | 0.022 rad/mCi | 0.033 rad/mCi | 0.025 rad/mCi | 0.027 rad/mCi | 0.025 rad/mCi | 0.1 rad/mCi | 0.058 rad/mCi | –
OC[C@H]1O[C@@H](O)[C@H]([18F])[C@@H](O)[C@@H]1O [FDG] | 0.048 rad/mCi | 0.07 rad/mCi | 0.034 rad/mCi | 0.22 rad/mCi | 0.074 rad/mCi | 0.064 rad/mCi | 0.039 rad/mCi | 0.053 rad/mCi | 0.096 rad/mCi | 0.047 rad/mCi | 0.03 rad/mCi | 0.14 rad/mCi | 0.041 rad/mCi | 0.044 rad/mCi | 0.039 rad/mCi | 0.32 rad/mCi | 0.062 rad/mCi | critical organ (radiation dose): urinary bladder wall, followed by heart, spleen and pancreas; estimated absorbed radiation dose, Gallbladder Wall (organ: Gallbladder Wall): 0.049 rad/mCi; estimated absorbed radiation dose, Liver (organ: Liver): 0.058 rad/mCi; estimated absorbed radiation dose, Lower Large Intestine Wall (organ: Lower Large Intestine Wall): 0.051 rad/mCi; estimated absorbed radiation dose, Small Intestine (organ: Small Intestine): 0.047 rad/mCi; estimated absorbed radiation dose, Upper Large Intestine Wall (organ: Upper Large Intestine Wall): 0.046 rad/mCi
